# In patent publication US9539257B2, “Method of treating cancer” (NOVARTIS AG, priority 2009, dated 2017):
# Read-outs that look alike come from different tables or passages of the source.
# Key:
# HLA-B*4403 = settings: matched case-control
# Experimental: The two phenotypes that were evaluated were maximum on-treatment liver chemistry values for ALT and TBL with respect to the upper limit of normal. These phenotypes were evaluated separately in case-control and quantitative trait analyses and jointly in a combined case-control analysis. ALT and TBL cases were defined as maximum on-treatment elevations of ≧3×ULN and ≧1.5×ULN, respectively, and control subjects were defined as maximum on-treatment ALT or TBL of ≦1×ULN. Approximately 950 patients with an adequate, fully consented DNA sample had available clinical data for these phenotypes. After subject genotyping quality control was completed, a total of 947 patients remained for pharmacogenetic analyses on at least one genetic variant.
# [1] = On-treatment liver chemistry (ALT, TBL, ALP), confirmatory study PGx population, lapatinib plus letrozole phase III trial; format: in vivo, human
# UGT1A1*28 = settings: exploratory
# Experimental: The two phenotypes that were evaluated were maximum on-treatment liver chemistry values for ALT and TBL with respect to the upper limit of normal. These phenotypes were evaluated separately in case-control and quantitative trait analyses and jointly in a combined case-control analysis. ALT and TBL cases were defined as maximum on-treatment elevations of ≧3×ULN and ≧1.5×ULN, respectively, and control subjects were defined as maximum on-treatment ALT or TBL of ≦1×ULN.
# 2) As genetic understanding of drug-induced liver injury is limited, a comprehensive drug induced liver injury (DILI) panel, developed by GSI in consultation with external liver experts was also evaluated. This DILI panel is comprised of approximately 6500 single nucleotide polymorphisms (SNPs) in 270 gene regions derived from the postulated mechanisms involved in the pathophysiology of DILI. In both approaches, genetic variation in each gene region was investigated using tag SNPs selected from the International HapMap project and/or high density SNP coverage consisting of all functional SNPs with a previously recorded genotype to phenotype correlation. […] Evaluation of HLA genes focused on a subset of the total number of patients consisting of all ALT cases (N=47) and matched controls (N=47).
# HLA-DQB1*0202 [2] = settings: Exploratory study
# Description: (§1) Germline DNA was extracted from peripheral blood (QiAmp DNA Blood Kit, Qiagen, Valencia, Calif.). This study evaluated candidate gene and genome-wide screening, performed in parallel, to detect case-control association signals in the exploratory cohort. Class I and II HLA genes (seven genes to 4-digit and three genes to 2-digit resolution) were typed by Laboratory Corporation of America (Burlington, N.C.) and Histogenetics (Ossining, N.Y.), or at GSK using the LABType® SSO Typing Test (One Lambda, Canoga Park, Calif.). […] Whole genome screen genotyping on the Illumina Human 1M-Duo platform was also conducted (Expression Analysis, Durham, N.C.).
# (§2) For the exploratory study, initial analysis of the GWAS was done using logistic regression, carried out in PLINK (Purcell S, et al. American Journal of Human Genetics 2007; 81, 559-575) using the genotypic test option when three genotype classes were observed, or the additive test option when only two genotype classes were observed. […] In addition to the genotype term, all models included baseline ALT xULN, treatment group (for the exploratory study), and a sufficient number of principal components to account for potential confounding by population structure. Principal components were obtained from EIGENSOFT (Patterson N. et al. PLoS Genetics 2006; 2: e190), using study subjects and HapMap founders.
# (§3) Genetic markers selected for confirmatory were required to achieve pre-defined p-value thresholds in the exploratory analysis of p≦0.05 for HLA markers, p≦0.01 for candidate gene markers and p≦10-4 for whole genome screen SNPs. For markers confirmed at p≦0.01, measures of potential clinical utility were evaluated. An allele or genotype(s) was designated which conferred a higher risk of ALT elevation and this was compared to the non-risk allele(s)/genotype(s) and the odds ratio (OR), positive predictive value (PPV), and negative predictive value (NPV) calculated.
# HLA-DRB1*0701 [3] = settings: Exploratory study
# Description: as §1, §2, §3
# HLA-DQA1*0201 = tested on: HLA-DQA1*0201
# Description: as §1, §2, §3
# HLA-DQB1*0202 [4] = tested on: HLA-DQB1*0202
# Experimental: (§4) The two phenotypes that were evaluated were maximum on-treatment liver chemistry values for ALT and TBL with respect to the upper limit of normal. These phenotypes were evaluated in both case-control and quantitative trait analyses while key associations were examined qualitatively in the combined ALT/TBL cases. ALT and TBL cases were defined as maximum on-treatment elevations of ≧3×ULN and ≧1.5×ULN, respectively, and control subjects were defined as maximum on-treatment ALT or TBL of ≦1×ULN. […] Approximately 370 patients with an adequate, fully consented DNA sample had available clinical data for these phenotypes.
# as §1, §2, §3
# HLA-DRB1*0701 [5] = tested on: HLA-DRB1*0701
# Experimental: as §4, §1, §2, §3
# TNXB rs12153855 = assay: ALT case-control genetic association, confirmatory study (lapatinib plus letrozole arm); format: in vivo, human; settings: TNXB rs12153855 CC/CT
# Description: as §1, §2, §3
# [6] = Confirmatory Study ALT Cases (N=24)
# [7] = Confirmatory Study ALT Cases with HLA Data Available, at time of maximum ALT
# [8] = Confirmatory Study ALT Controls (N=155)
# [9] = Confirmatory Study PGx Population (1 trial, N=374), lapatinib combination with letrozole
# [10] = Confirmatory Study PGx Population (N=374), lapatinib + letrozole
# [11] = lapatinib plus letrozole arm of the confirmatory study
# [12] = DQB1*0202 carriage, ALT cases, Confirmatory study
# [13] = DQB1*0202 carriage, ALT controls, Confirmatory study
# [14] = restricted baseline (ALT and TBL <=1xULN at baseline)
# [15] = unrestricted baseline (ALT and/or TBL >1xULN at baseline)
# [16] = DRB1*0701 carriage, ALT cases, Confirmatory study
# [17] = DRB1*0701 carriage, ALT controls, Confirmatory study
smiles,measurement,setting,value
"CS(=O)(=O)CCNCc1ccc(-c2ccc3ncnc(Nc4ccc(OCc5cccc(F)c5)c(Cl)c4)c3c2)o1 [lapatinib, N-(3 chloro-4-{[(3-fluorophenyl)methyl]oxy}phenyl)-6-[5-({[2 (methylsulfonyl)ethyl]amino}methyl)-2-furanyl]-4-quinazolinamine bis(4 methylbenzenesulfonate)monohydrate]",ALT cases carrying one copy of HLA-B*4403,HLA-B*4403; 47 cases,Twenty three
same,ALT controls carrying one copy of HLA-B*4403,HLA-B*4403; 47 controls,6%
same,Maximum on treatment ALT xULN: Mean(SD),[1]; [6],6.50(3.73) xULN
same,Maximum on treatment ALT xULN: Median,[1]; [6],4.96 xULN
same,N of ALT cases with Cholestatic injury type,[1]; [7],3
same,N of ALT cases with Hepatocellular injury type,[1]; [7],12
same,N of ALT cases with Mixed injury type,[1]; [7],9
same,Maximum on treatment ALT xULN: Mean(SD),[1]; [8],0.66(0.19) xULN
same,Maximum on treatment ALT xULN: Median,[1]; [8],0.65 xULN
same,Maximum on treatment ALT xULN: Mean(SD),[1]; [9],1.53 (1.97) xULN
same,Maximum on treatment ALT xULN: Median,[1]; [9],0.91 xULN
same,Maximum on treatment ALT > 3 xULN (%),[1]; [10],9.4%
same,Maximum on treatment ALT > 5 xULN (%),[1]; [10],5.1%
same,Maximum on treatment ALT > 8 xULN (%),[1]; [10],2.4%
same,Maximum on treatment TBL xULN: Mean(SD),[1]; [10],0.93 (1.48) xULN
same,Maximum on treatment TBL xULN: Median,[1]; [10],0.76 xULN
same,"hepatobiliary adverse event cases (ALT>3x and TBL >1.5xULN, irrespective of baseline ALT), number",[1]; [11],Fifteen
same,"patients adjudicated by liver experts as probable Hy's Rule cases, number",[1]; [11],two
same,TBL cases with TA7/TA7 genotype,UGT1A1*28; TBL cases (N=60),Thirty five
same,TBL cases with at least one TA7 allele,UGT1A1*28; TBL cases (N=60),82%
same,TBL controls with TA7/TA7 genotype,UGT1A1*28; controls (N=396),5%
same,TBL controls with at least one TA7 allele,UGT1A1*28; controls (N=396),48%
same,Carriage: cases (%),HLA-DQB1*0202 [2]; ALT cases,(37%)
same,Carriage: cases (n/N),HLA-DQB1*0202 [2]; ALT cases,13/35
same,Carriage: controls (%),HLA-DQB1*0202 [2]; ALT controls,(17%)
same,Carriage: controls (n/N),HLA-DQB1*0202 [2]; ALT controls,47/281
same,Carriage: cases (%),HLA-DRB1*0701 [3]; ALT cases,(40%)
same,Carriage: cases (n/N),HLA-DRB1*0701 [3]; ALT cases,14/35
same,Carriage: controls (%),HLA-DRB1*0701 [3]; ALT controls,(21%)
same,Carriage: controls (n/N),HLA-DRB1*0701 [3]; ALT controls,59/283
same,Carriage: cases (n/N),"HLA-DQA1*0201; DQA1*0201 carriage, ALT cases (>3xULN), Exploratory study",14/35
same,Carriage: controls (n/N),"HLA-DQA1*0201; DQA1*0201 carriage, ALT controls, Exploratory study",58/283
same,"% that carry DQA1*0201, Cholestatic",HLA-DQA1*0201; Exploratory Study ALT Cases,25%
same,"% that carry DQA1*0201, Hepatocellular",HLA-DQA1*0201; Exploratory Study ALT Cases,43%
same,"% that carry DQA1*0201, Mixed",HLA-DQA1*0201; Exploratory Study ALT Cases,40%
same,"N that carry DQA1*0201, Cholestatic",HLA-DQA1*0201; Exploratory Study ALT Cases,1
same,"N that carry DQA1*0201, Hepatocellular",HLA-DQA1*0201; Exploratory Study ALT Cases,9
same,"N that carry DQA1*0201, Mixed",HLA-DQA1*0201; Exploratory Study ALT Cases,4
same,Carriage: cases (%),HLA-DQB1*0202 [4]; [12],(63%)
same,Carriage: cases (n/N),HLA-DQB1*0202 [4]; [12],15/24
same,Carriage: controls (%),HLA-DQB1*0202 [4]; [13],(19%)
same,Carriage: controls (n/N),HLA-DQB1*0202 [4]; [13],30/155
same,combined ALT/TBL cases that carried HLA-DQB1*0202,HLA-DQB1*0202 [4]; [14],5/6
same,combined ALT/TBL cases that were HLA-DQB1*0202 carriers,HLA-DQB1*0202 [4]; [15],1/6
same,Carriage: cases (%),HLA-DRB1*0701 [5]; [16],(67%)
same,Carriage: cases (n/N),HLA-DRB1*0701 [5]; [16],16/24
same,Carriage: controls (%),HLA-DRB1*0701 [5]; [17],(23%)
same,Carriage: controls (n/N),HLA-DRB1*0701 [5]; [17],35/155
same,combined ALT/TBL cases that were HLA-DRB1*0701 carriers,HLA-DRB1*0701 [5]; [14],6/6
same,combined ALT/TBL cases that were HLA-DRB1*0701 carriers,HLA-DRB1*0701 [5]; [15],1/6
same,Carriage: cases (%),TNXB rs12153855; ALT cases,(63%)
same,Carriage: cases (n/N),TNXB rs12153855; ALT cases,15/24
same,Carriage: controls (%),TNXB rs12153855; ALT controls,(19%)
same,Carriage: controls (n/N),TNXB rs12153855; ALT controls,29/155
